This note sets out measurements from patent publication US4963570A, “1-(acetylaminophenyl)-2-aminopropanone derivatives and pharmaceutical compositions thereof” (Laboratoire L. Lafon, priority 1983, dated 1990).

The structures appear in SMILES notation. Entries after “also recorded” stand apart in the source; their conditions may differ. Structures can show the parent of a compound that is named as a salt.

In series [1] the test system is male mice. Description: acute toxicity, intraperitoneal (lethal doses). It counts as in vivo, mouse. The conditions noted are these: i.p. The protocol:
By intraperitoneal administration to male mice, the LD-30 (lethal dose for 30% of the animals tested) is of the order of 128 mg/kg and the LD-50 is of the order of about 200 mg/kg.

The test system of series [2] is mice. Put plainly: overall behavior and reactivities in mice. The conditions noted are these: mice, i.p.; dose not stated. Type of series: in vivo, mouse. Here is the method:
(§1) Groups of three animals are observed before and then 0.25 hour, 0.50 hour, 1 hour, 2 hours, 3 hours and 24 hours after the administration of CRL 41 224.

Series [3] relates to mice. Put plainly: interaction with apomorphine in mice. Type of series: in vivo, mouse. The conditions noted are these: i.p.; dose not stated. Here is the method:
Groups of 6 mice receive CRL 41 224 0.5 hour before the subcutaneous injection of 1 or 16 mg/kg of apomorphine.

Series [4] concerns rats. Put plainly: interaction with apomorphine in rats. Type of series: in vivo, rat. The conditions noted are these: i.p., dose not stated. Here is the method:
CRL 41 224 is administered to groups of 6 rats 0.5 hour before the subcutaneous injection of 0.5 mg/kg of apomorphine.

For series [5], the system named is rats. Put plainly: interaction with amphetamine. Type of series: in vivo, rat. The conditions noted are these: rats, i.p.; dose not stated. The protocol: Amphetamine (2 mg/kg) is injected intraperitoneally into groups of 6 rats 30 minutes after the administration of CRL 41 224.
Series [6] has as its system mice. Put plainly: interaction with reserpine. It counts as in vivo, mouse. As to conditions: i.p.; dose not stated. The protocol:
Four hours after the intraperitoneal injection of 2.5 mg/kg of reserpine, groups of 6 mice receive CRL 41 224.

For series [7], the system named is mice. Description: interaction with oxotremorine. Type of series: in vivo, mouse. As to conditions: i.p.; dose not stated. The protocol:
CRL 41 224 is administered to groups of 6 mice 0.5 hour before the intraperitoneal injection of 0.5 mg/kg of oxotremorine.

The test system of series [8] is mice. Put plainly: four plate test, traction and electric shock. It counts as in vivo, mouse. The conditions noted are these: i.p., dose not stated. Here is the method: The test is performed on groups of 10 mice 30 minutes after the administration of CRL 41 224.
The test system of series [9] is mice. Put plainly: action on the spontaneous motility (actimeter). It counts as in vivo, mouse. As to conditions: mice, i.p.; dose not stated. Here is the method: 0.5 hour after they have received CRL 41 224, the mice (6 per dose, 12 control animals) are placed in an actimeter, where their motility is recorded for 30 minutes.
Series [10] deals with mice. Description: motility reduced by habituation to the enclosure. It counts as in vivo, mouse. As to conditions: i.p., dose not stated. The protocol: After they have stayed in the actimeters for 18 hours, the mice (6 per dose, 12 control animals) receive CRL 41 224. They are immediately returned to their respective enclosures and, half an hour later, their motility is recorded for 30 minutes.

The subject of series [11] is mice. Description: motility reduced by hypoxic aggression. As to conditions: i.p., dose not stated. It counts as in vivo, mouse. The protocol:
Half an hour after they have received CRL 41 224, the mice (10 per dose, 20 control animals) are subjected to acute hypobaric anoxia [pressure reduction of 600 mm Hg (i.e. about 8×10^4 Pa) in 90 seconds; release of vacuum in 45 seconds] and are then placed in an actimeter, where their motility is recorded for 10 minutes.

In series [12] the test system is mice. Description: interaction with barbital. Type of series: in vivo, mouse. As to conditions: i.p.; dose not stated. The protocol:
Half an hour after the administration of CRL 41 224, groups of 10 mice receive an intraperitoneal injection of barbital (220 mg/kg).

Series [13] has as its system mice. Description: action on the behavioral despair. Type of series: in vivo, mouse. The conditions noted are these: i.p., dose not stated. The text has this: Half an hour after they have received CRL 41 224, groups of 6 mice are placed in a beaker filled with water to a height of 6 cm. The total period of immobility between the 2nd and 6th minutes following immersion is noted.

Series [14] has as its system CNS. Put plainly: overall neuropsychopharmacological (CNS) profile. It counts as in vivo, mouse; rat. The conditions noted are these: i.p., mice and rats, dose not stated. Here is the method: The neuropsychopharmacological study of CRL 41 219 was carried out as indicated above for CRL 41 224.
The neuropsychopharmacological study of CRL 41 220 was carried out in accordance with the procedures given above for CRL 41 224.

The test system of series [15] is peripheral α-adrenergic stimulation. Put plainly: signs of peripheral adrenergic stimulation. It counts as in vivo, mouse; rat. The conditions noted are these: i.p.; dose not stated. Here is the method:
as §1

Series [16] has as its system dogs. Put plainly: cardiovascular action in anesthetized dogs. Type of series: in vivo, dog. As to conditions: control dogs, isoprenaline alone. The protocol: Four dogs (average weight: 13.8 kg), anesthetized with nembutal, receive CRL 41 220 by intraduodenal administration at successive doses of 0.1 mg/kg, 0.5 mg/kg, 1 mg/kg, 2.5 mg/kg, 5 mg/kg and 10 mg/kg. The blood pressure, the heart beat, the flow rate through the femoral artery, the flow rate through the vertebral artery and the rectal and/or skin temperature are measured and the coloration of the skin and the bile (collected by catheterization of the bile duct after ligature of the cystic duct) is observed.

In series [17] the test system is rats. Put plainly: overall behavior and reactivities in rats. It counts as in vivo, rat. As to conditions: i.p., dose not stated. Here is the method:
as §1

Series [18] relates to rats. Description: action on stereotypies in rats (α-methyltyrosine, haloperidol, reserpine). As to conditions: i.p.
For series [19], the system named is LEWIS' carcinoma. Put plainly: LEWIS' carcinoma in mice. Type of series: in vivo, mouse. As to conditions: mice. The protocol: a. animals: consanguineous female mice (C57 BL6), b. infecting cells: 10^5 cells injected subcutaneously into the back of the animals, c. monitoring of the tumor growth by measurement of the tumor twice a week, d. evaluation of the pulmonary metastases after fixation of the lungs of the dead animals in BOUIN's fixative.
Using the same procedures, the association of CRL 41 220 with 150 mg/kg of cyclophosphamide gives the results collated in Table II below.

Turning to `CC(=O)Nc1ccc(C(=O)C(C)N2CCOCC2)cc1` (stereo not drawn) [CRL 41 236], in series [1], the “LD-0 (maximum non-lethal dose)” value is listed as “greater than 256 mg/kg” and the LD-30 result is “about 500 mg/kg”. Further, in series [2], the excitation in mice result is reported as “excitation with hyperreactivity” and the “stereotype movements in mice” value is reported as “without the presence of stereotype movements”. Besides, the “hypothermia induced by apomorphine” value in series [3] is recorded as “antagonism of the hypothermia induced by apomorphine”. In addition, in [4], the “stereotypies induced by apomorphine” value is listed as “potentiation of the stereotypies induced by apomorphine”. Also, in series [5], the “stereotypies induced by amphetamine” value was “potentiation of the stereotypies induced by apomorphine and amphetamine”. In addition, in series [6], the “hypothermia induced by reserpine” value is recorded as “antagonism of the hypothermia induced by apomorphine, reserpine” and the “ptosis induced by reserpine” value is “antagonism of the ptosis induced by reserpine”. For the same compound, the “hypothermia induced by oxotremorine” value in [7] was “antagonism of the hypothermia induced by apomorphine, reserpine and oxotremorine”. Moreover, the “lethal effects of electric shock” value in series [8] is “seems to aggravate the lethal effects of electric shock”. For the same compound, in series [8] (mice), the “number of punished passes in the 4 plate test” value was “moderate increase in the number of punished passes”. Besides, the “spontaneous motility / motor activity” value in series [9] is recorded as “increase in the spontaneous motility”. In addition, the “motor activity after habituation to the enclosure” value (“motor activity after habituation” for short) in series [10] is “increase in the spontaneous motility and in the motor activity after habituation to the enclosure”. In [11], the “motor recovery after hypoxic aggression” value is “improvement in the motor recovery after hypoxic aggression”. In [12], the “sleep induced by barbital” value was “antagonism of the sleep induced by barbital”. Besides, the “period of immobility or "despair"” value in series [13] is given as “reduction in the immobility”. For the same compound, in series [14], the “overall action on the CNS” value was “behaves as an antidepressant having stimulant and arousing properties”. Further, in series [15], the mydriasis entry was “mydriasis” and the “peripheral adrenergic stimulation, overall” value was “peripheral α-adrenergic stimulation”.

Consider `CC(C)NCC(O)c1ccc(O)c(O)c1` (stereo not drawn) [isoprenaline, reference compound], for which the “heart beat with 10 μg/kg of isoprenaline, control animals” value in series [16] is listed as 280 beats/minute.

For the compound `CC(=O)Nc1ccc(C(=O)C(C)N(C)C)cc1` (stereo not drawn) [CRL 41 232], in series [1], the “LD-0 (maximum non-lethal dose)” value is recorded as “greater than 128 mg/kg” and the LD-30 entry is given as “about 250 mg/kg”. Also, in series [2], the excitation in mice entry is reported as “excitation in mice” and the “stereotype movements in mice” value is recorded as “presence of stereotype movements in mice”. Further, in series [17], the “stereotype movements in rats” value was “presence of stereotype movements in mice and rats”. The “hypothermia induced by apomorphine” value in series [3] was “antagonism of the hypothermia induced by apomorphine”. Also, the “stereotypies induced by apomorphine” value in series [4] is “potentiation of the stereotypies induced by apomorphine”. The “stereotypies induced by amphetamine” value in [5] is “potentiation of the stereotypies induced by apomorphine and amphetamine”. In series [6], the “hypothermia induced by reserpine” value is recorded as “antagonism of the hypothermia induced by apomorphine, reserpine” and the “ptosis induced by reserpine” value is listed as “antagonism of the ptosis induced by reserpine”. Moreover, the “hypothermia induced by oxotremorine” value in [7] was “antagonism of the hypothermia induced by apomorphine, reserpine and oxotremorine”. Further, the “spontaneous motility / motor activity” value in series [9] is listed as “increase in the motor activity”. The “motor activity after habituation” value in [10] was “distinct resumption in the motor activity of mice accustomed to their enclosure”. Besides, in series [11], the “motor recovery after hypoxic aggression” value was “improvement in the motor recovery”. In series [13], the “period of immobility or "despair"” value is listed as “reduction in the period of immobility”. Also, the “overall action on the CNS” value in [14] was “behaves overall as a stimulant and antidepressant for the CNS”. For the same compound, in series [15], the exophthalmos result is recorded as “exophthalmos”; the mydriasis result is reported as “mydriasis”; the “peripheral adrenergic stimulation, overall” value is listed as “peripheral α-adrenergic stimulation”.

As to `CC(=O)Nc1ccc(C(=O)C(C)NC(C)C)cc1Cl` (stereo not drawn) [CRL 41 192, 1-(4-acetylamino-3-chlorophenyl)-2-isopropylaminopropanone hydrochloride], the excitation in mice result in series [2] is recorded as “excitation with hyperreactivity in mice”. For the same compound, the “stereotype movements in rats” value in [17] is on record as “stereotype movements in rats”. For the same compound, in series [3], the “hypothermia induced by apomorphine” value was “antagonism of the hypothermia induced by apomorphine”. Further, in series [4], the “stereotypies induced by apomorphine” value was “potentiation of the stereotypies induced by apomorphine”. For the same compound, in series [5], the “stereotypies induced by amphetamine” value was “potentiation of the stereotypies induced by apomorphine or amphetamine”. Besides, in [6], the “hypothermia induced by reserpine” value was “antagonism of the hypothermia induced by apomorphine, oxotremorine or reserpine” and the “ptosis induced by reserpine” value was “antagonism of the ptosis induced by reserpine”. For the same compound, in series [7], the “hypothermia induced by oxotremorine” value is recorded as “antagonism of the hypothermia induced by apomorphine, oxotremorine” and the “trembling caused by oxotremorine” value is recorded as “antagonism of the trembling caused by oxotremorine”. Further, in series [8], the “convulsant effects of electric shock” value is reported as “anticonvulsant effects”. In addition, the “spontaneous motility / motor activity” value in [9] is on record as “an increase in the spontaneous motility in mice”. In addition, in [10], the “motor activity after habituation” value is on record as “a resumption in the motor activity of mice accustomed to their enclosure”. Moreover, the “motor recovery after hypoxic aggression” value in series [11] was “an improvement in the motor recovery in mice after acute hypoxia”. Also, the “sleep induced by barbital” value in series [12] is on record as “antagonism of the sleep induced by barbital”. Also, the “period of immobility or "despair"” value in series [13] is “a reduction in the immobility”. Moreover, the “overall action on the CNS” value in [14] (hydrochloride) is “stimulant effects; also recorded: antidepressant effects”. In addition, in series [15], the exophthalmos result is “absent”; the mydriasis entry is on record as “mydriasis”; the “peripheral adrenergic stimulation, overall” value is given as “effects which may reflect peripheral adrenergic stimulation”; the salivation result was “absent”. The “suppression of induced stereotype movements by prior injection of alpha-methyltyrosine” value in series [18] is “not suppressed”.

For `O=P1(N(CCCl)CCCl)NCCCO1` (stereo not drawn) [cyclophosphamide, reference compound], in series [19] (100 mg/kg), the development of tumors entry is recorded as “slightly slows down the development of tumors”, the “number of pulmonary metastases” value was “reduces the number of pulmonary metastases” and the “survival of the animals treated” value is “without however improving the survival of the animals treated”. In addition, in [19] (150 mg/kg), the “effect on process initiated by the administration of infecting cells” value is “distinctly opposes the process initiated by the administration of infecting cells” and the survival was 2 out of 6.
